From article PMC6557900 (Nature Communications, 2019)
Where two headings read alike, the source gives them in different places. Where a SMILES comes first, the peptide text is derived from it. [ ]: non-standard residue; d: D form. pY = N[C@@H](Cc1ccc(OP(=O)(O)O)cc1)C(=O)O

What was measured:
[1] = biological target: T1, wild-type SBC (SOCS2-ElonginB-ElonginC) (Homo sapiens, UniProt O14508+Q15369+Q15370); assay: SPR direct binding, wild-type SBC immobilized on the chip; details: mean ± s.e.m., four independent experiments
T1 construct: His6 (N, cleaved yes); made in house; host or cells: E. coli BL21(DE3)
T1 sequence (O14508 32-198): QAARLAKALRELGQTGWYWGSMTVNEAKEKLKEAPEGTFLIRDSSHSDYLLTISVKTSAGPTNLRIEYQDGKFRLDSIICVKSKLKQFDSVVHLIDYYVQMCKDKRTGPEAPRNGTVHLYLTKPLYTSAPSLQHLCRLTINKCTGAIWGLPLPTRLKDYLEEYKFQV
T1 sequence (Q15370 1-104 partner limits assumed): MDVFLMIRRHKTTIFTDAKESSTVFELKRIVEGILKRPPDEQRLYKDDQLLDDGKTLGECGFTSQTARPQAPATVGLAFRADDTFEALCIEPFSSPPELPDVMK
T1 sequence (Q15369 17-112 partner limits assumed): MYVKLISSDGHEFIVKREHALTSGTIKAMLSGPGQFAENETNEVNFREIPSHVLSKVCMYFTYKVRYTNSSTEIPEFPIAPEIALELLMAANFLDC
Protocol: (§1) Biotinylated wild-type SBC and mutants were immobilized onto a chip surface and injected a series of seven concentrations (0.08, 0.25, 0.7, 2.2, 6.7, 20 and 60 μM) of peptide across the sensor surface for 60 s contact time and 120 sec dissociation time at 30 μl min^−1 flow rate. Data analysis was carried out using Biacore Evaluation Software (GE Healthcare). All data were double-referenced for reference surface and blank injection. The processed sensograms were fit to a steady-state affinity using a 1:1 binding model for KD estimation (raw data shown in Supplementary Figs. 10–15).

[2] = biological target: SBC (SOCS2-ElonginB-ElonginC) (Homo sapiens, UniProt O14508+Q15369+Q15370); assay: 19F ligand-observed CPMG NMR displacement of spy molecule 3
SBC (SOCS2-ElonginB-ElonginC), sequence (O14508 32-198): as the sequence (O14508 32-198) above
SBC (SOCS2-ElonginB-ElonginC), sequence (Q15370 1-104 partner limits assumed): as the sequence (Q15370 1-104 partner limits assumed) above
SBC (SOCS2-ElonginB-ElonginC), sequence (Q15369 17-112 partner limits assumed): as the sequence (Q15369 17-112 partner limits assumed) above
Excerpt: In the ^19F NMR displacement assay, the fluorine signal of a purposely-designed reporter ligand (also referred to as spy molecule) was monitored as a mean to quantify the extent of the competition between the tested peptides and the spy molecule. A Carr-Purcell-Meiboom-Gill (CPMG) pulse sequence was applied to estimate the spin–spin relaxation time (T2) of the spy molecule in the absence and presence of protein[43]–[45]. By adding competitor to disrupt the protein-spy interaction, the binding affinity of a competitor can be calculated based on the degree of displacement of the spy[46],[47].
All NMR experiments were conducted using AV-500 MHz Bruker spectrometer equipped with a 5 mm CPQCI 1H/19F/13C/15N/D Z-GRD cryoprobe) at 298 K. Spectra were recorded using 80 scans of a CPMG pulse sequence that attenuates broad resonances. […] The transmitter frequency was placed close to the resonance of O1 = −35451 Hz (−75.3 ppm). […] All NMR data were processed and analyzed using TopSpin (Bruker).
The dissociation constant of peptides (Ki) was calculated by adapting the method described by Wang et al.[47] Briefly, peptides’ Ki values were obtained from the equation below:1 Ki=([P0]-[PI]-[PL])([I0]-[PI])/[PI] where [I0] and [P0] are the total concentrations of the competitor (peptide inhibitor) and protein, respectively, used in the experiment, while [PI] and [PL] are the free concentrations of protein–peptide and protein–spy complexes, which are unknown.
To determine [PL] the following equation was used:2 IF-II/IF-IP=[PL]/[PL0] where IF is the measured integral of the fluorine peak of the spy molecule free in solution; IP is the integral of the same signal in the presence of protein; II is the integral of the same signal in the presence of protein and competing peptide; and [PL0] is the concentration of protein-spy complex in the absence of competitor, which was calculated using the following equation:3 [PL0]=[P0]+[L0]+KD-([P0]+[L0]+KD)^2-4[P0][L0]/2 where [L0] is the total concentrations of spy molecule used in the experiment, and KD is the dissociation constant of the protein-spy complex (determined by ITC). To determine [PI] the following equation was used: 4 [PL]=[P0]+[L0]+KD-[PI]-([P0]+[L0]+KD-[PI])^2-4([P0]-[PI])[L0]/2 where [PL] was determined as described above (Equation 2).

SBC with SOCS2 L106V = biological target: T2, SBC with SOCS2 L106V (Homo sapiens, UniProt O14508+Q15369+Q15370, L106V); assay: SPR, SNP mutant SBC immobilized; assay type: binding; details: read-out: SPR dissociation constant KD
T2 construct: His6 (N, cleaved yes); made in house; host or cells: E. coli BL21(DE3)
T2 sequence (O14508 32-198 L106V): as the sequence (O14508 32-198) above, with L75V counted along it
T2 sequence (Q15370 1-104 partner limits assumed): as the sequence (Q15370 1-104 partner limits assumed) above
T2 sequence (Q15369 17-112 partner limits assumed): as the sequence (Q15369 17-112 partner limits assumed) above
Protocol: (§2) Protein expression was induced with isopropyl β-d-1-thiogalactopyranoside at 18 °C for 12 h. […] SBC was finally purified by size-exclusion chromatography on a Superdex 75 16/600 column (GE Healthcare) in 25 mM HEPES, pH 7.5, 250 mM NaCl and 10 mM DTT.
as §1

SBC with SOCS2 N94D = biological target: T3, SBC with SOCS2 N94D (Homo sapiens, UniProt O14508+Q15369+Q15370, N94D); assay: SPR, SNP mutant SBC immobilized; assay type: binding; details: source data of Table 3, N94D
T3 construct: His6 (N, cleaved yes); made in house; host or cells: E. coli BL21(DE3)
T3 sequence (O14508 32-198 N94D): as the sequence (O14508 32-198) above, with N63D counted along it
T3 sequence (Q15370 1-104 partner limits assumed): as the sequence (Q15370 1-104 partner limits assumed) above
T3 sequence (Q15369 17-112 partner limits assumed): as the sequence (Q15369 17-112 partner limits assumed) above
Protocol: as §2, §1

SBC with SOCS2 R96Q = biological target: T4, SBC with SOCS2 R96Q (Homo sapiens, UniProt O14508+Q15369+Q15370, R96Q); assay: SPR, SNP mutant SBC immobilized; assay type: binding; details: for SPR KD: source data of Table 3, R96Q
T4 construct: His6 (N, cleaved yes); made in house; host or cells: E. coli BL21(DE3)
T4 sequence (O14508 32-198 R96Q): as the sequence (O14508 32-198) above, with R65Q counted along it
T4 sequence (Q15370 1-104 partner limits assumed): as the sequence (Q15370 1-104 partner limits assumed) above
T4 sequence (Q15369 17-112 partner limits assumed): as the sequence (Q15369 17-112 partner limits assumed) above
Protocol: as §2, §1

SBC with SOCS2 R96L = biological target: T5, SBC with SOCS2 R96L (Homo sapiens, UniProt O14508+Q15369+Q15370, R96L); assay: SPR, SNP mutant SBC immobilized; assay type: binding; details: for SPR KD: source data of Table 3, R96L
T5 construct: His6 (N, cleaved yes); made in house; host or cells: E. coli BL21(DE3)
T5 sequence (O14508 32-198 R96L): as the sequence (O14508 32-198) above, with R65L counted along it
T5 sequence (Q15370 1-104 partner limits assumed): as the sequence (Q15370 1-104 partner limits assumed) above
T5 sequence (Q15369 17-112 partner limits assumed): as the sequence (Q15369 17-112 partner limits assumed) above
Protocol: as §2, §1

[3] = biological target: T6, SOCS2-EloB-EloC ternary (SBC) complex (Homo sapiens, UniProt O14508+Q15369+Q15370); assay: Isothermal titration calorimetry (ITC), ligand titrated into SBC; assay type: binding
T6 construct: His6 (N, cleaved yes); made in house; host or cells: E. coli BL21(DE3)
T6 sequence (O14508 32-198): as the sequence (O14508 32-198) above
T6 sequence (Q15370 1-104 partner limits assumed): as the sequence (Q15370 1-104 partner limits assumed) above
T6 sequence (Q15369 17-112 partner limits assumed): as the sequence (Q15369 17-112 partner limits assumed) above
Protocol: The ITC titration consisted of 0.4 μl initial injection (discarded during data analysis) followed by 19 of 2 μl injections at 120 s interval between injections. […] Binding data was subtracted from a control titration where peptide was titrated into buffer, and fitted using a one-set-of-site binding model to obtain dissociation constants, binding enthalpy (ΔH), and stoichiometry (N) using MicroCal ITC-ORIGIN Analysis Software 7.0 (Malvern).

[4] = Table 2, biotinylated wild-type SBC immobilized, peptide 0.08-60 μM, 20 mM HEPES pH7.5, 150 mM NaCl, 1 mM TCEP, 0.005% Tween20, 10 °C, steady-state 1:1 model, read-out: SPR KD
[5] = read-out: SPR dissociation constant KD

Question: `CC[C@H](C)[C@H](NC(=O)[C@@H](NC(=O)[C@H](Cc1ccc(OP(=O)(O)O)cc1)NC(=O)[C@H](C)NC(=O)[C@H](Cc1ccccc1)NC(=O)[C@H](CO)NC(=O)[C@H](C)N)[C@@H](C)O)C(=O)N[C@@H](CC(C)C)C(=O)N[C@@H](CC(=O)O)C(=O)N1CCC[C@H]1C(=O)N[C@@H](CO)C(N)=O` [ASFApYTILDPS] (H-ASFA[pY]TILDPS-NH2) was tested. Which Kd [1, 4] did it give?
Answer: Its Kd is 21.7 ± 1.49 µM.

Question: `CC(C)C[C@H](NC(=O)[C@H](C)NC(=O)[C@@H](NC(=O)[C@H](Cc1ccc(OP(=O)(O)O)cc1)NC(=O)[C@H](CCC(=O)O)NC(=O)[C@H](Cc1ccccc1)NC(=O)[C@H](CO)NC(=O)[C@H](C)N)[C@@H](C)O)C(=O)N[C@@H](CC(=O)O)C(=O)N1CCC[C@H]1C(=O)N[C@@H](CO)C(N)=O` [ASFEpYTALDPS] (H-ASFE[pY]TALDPS-NH2) was tested. Which Ki [2] did it give?
Answer: Its Ki is 17.2 ± 0.89 µM.

Question: Which results are given for `CC[C@H](C)[C@H](NC(=O)[C@@H](NC(=O)[C@H](Cc1ccc(OP(=O)(O)O)cc1)NC(=O)[C@H](CCC(=O)O)NC(=O)[C@H](Cc1ccccc1)NC(=O)[C@H](CO)NC(=O)[C@H](C)N)[C@@H](C)O)C(=O)N[C@@H](CC(C)C)C(=O)N[C@@H](C)C(=O)N1CCC[C@H]1C(=O)N[C@@H](CO)C(N)=O` [ASFEpYTILAPS] (H-ASFE[pY]TILAPS-NH2)?
Answer: Ki [2]: 14.1 ± 1.74 µM; Kd [1, 4]: 18 ± 0.91 µM

Question: Which results are given for `CC[C@H](C)[C@H](NC(=O)[C@@H](NC(=O)[C@H](Cc1ccc(OP(=O)(O)O)cc1)NC(=O)[C@H](CCC(=O)O)NC(=O)[C@H](Cc1ccccc1)NC(=O)[C@H](CO)NC(=O)[C@H](C)N)[C@@H](C)O)C(=O)N[C@@H](CC(C)C)C(=O)N[C@@H](CC(=O)O)C(=O)N[C@@H](C)C(=O)N[C@@H](CO)C(N)=O` [ASFEpYTILDAS] (H-ASFE[pY]TILDAS-NH2)?
Answer: Ki [2]: 6.9 ± 1.39 µM; Kd [1, 4]: 8.9 ± 1.25 µM

Question: For `CC[C@H](C)[C@H](NC(=O)[C@H](CO)NC(=O)[C@@H](NC(=O)[C@H](Cc1ccc(OP(=O)(O)O)cc1)NC(=O)[C@H](CC(=O)O)NC(=O)[C@@H]1CCCN1C(=O)[C@@H](NC(=O)[C@H](C)N)C(C)C)[C@@H](C)O)C(=O)N[C@@H](Cc1c[nH]cn1)C(=O)N[C@H](C(=O)N[C@H](C(N)=O)C(C)C)[C@@H](C)CC` [AVPDpYTSIHIV], which Ki [2] is on record?
Answer: The Ki was 0.9 ± 0.17 µM.

Question: Which results are given for `CC[C@H](C)[C@H](NC(=O)[C@H](CC(=O)O)NC(=O)[C@H](CO)NC(=O)[C@@H](NC(=O)[C@H](CCC(N)=O)NC(=O)[C@H](C)NC(=O)[C@H](Cc1ccc(OP(=O)(O)O)cc1)NC(=O)[C@H](Cc1ccccc1)NC(=O)[C@H](CC(=O)O)NC(=O)[C@@H](NC(=O)[C@@H](N)CC(N)=O)[C@@H](C)CC)C(C)C)C(N)=O` [GHR_pY487] (H-NIDF[pY]AQVSDI-NH2)?
Answer: Kd (SBC with SOCS2 L106V): 8.9 ± 0.7 µM; SPR KD (SBC with SOCS2 N94D; replicate 1): weak; SPR KD (SBC with SOCS2 N94D; replicate 2): weak; SPR KD (SBC with SOCS2 N94D; replicate 3): weak; SPR KD (SBC with SOCS2 N94D; replicate 4): weak; Kd (SBC with SOCS2 R96Q; [5]): > 60 µM; SPR KD (SBC with SOCS2 R96Q; replicate 1): nb; SPR KD (SBC with SOCS2 R96Q; replicate 2): nb; SPR KD (SBC with SOCS2 R96Q; replicate 3): nb; SPR KD (SBC with SOCS2 R96Q; replicate 4): nb; Kd (SBC with SOCS2 R96L; [5]): > 60 µM; SPR KD (SBC with SOCS2 R96L; replicate 1): weak; SPR KD (SBC with SOCS2 R96L; replicate 2): weak; SPR KD (SBC with SOCS2 R96L; replicate 3): weak; SPR KD (SBC with SOCS2 R96L; replicate 4): weak; Kd ([1]; Table 3, wild-type SOCS2 (SBC), 10 °C, read-out: SPR dissociation constant KD): 5.1 ± 0.77 µM; Kd [3]: 2.3 µM

Question: How did the Ki [2] turn out when `CC[C@H](C)[C@H](NC(=O)[C@H](CO)NC(=O)[C@@H](NC(=O)[C@H](Cc1ccc(OP(=O)(O)O)cc1)NC(=O)[C@H](CC(=O)O)NC(=O)[C@@H]1CCCN1C(=O)[C@H](C)NC(=O)[C@@H]1CCCN1)[C@@H](C)O)C(=O)N[C@@H](Cc1c[nH]cn1)C(=O)N[C@H](C(=O)N[C@H](C(N)=O)C(C)C)[C@@H](C)CC` [PAPDpYTSIHIV] was run?
Answer: Its Ki is 3.4 ± 0.25 µM.

Question: With `CC[C@H](C)[C@H](NC(=O)[C@H](CO)NC(=O)[C@H](C)NC(=O)[C@H](Cc1ccc(OP(=O)(O)O)cc1)NC(=O)[C@H](CC(=O)O)NC(=O)[C@@H]1CCCN1C(=O)[C@@H](NC(=O)[C@@H]1CCCN1)C(C)C)C(=O)N[C@@H](Cc1c[nH]cn1)C(=O)N[C@H](C(=O)N[C@H](C(N)=O)C(C)C)[C@@H](C)CC` [PVPDpYASIHIV] (H-PVPD[pY]ASIHIV-NH2) as the compound, how does the Ki [2] read?
Answer: The Ki was 0.5 ± 0.07 µM.

Question: What about the Kd [1, 4] of the same compound?
Answer: Its Kd is 1 ± 0.09 µM.

Question: How did the Ki [2] turn out when `CC[C@H](C)[C@H](NC(=O)[C@H](Cc1c[nH]cn1)NC(=O)[C@H](C)NC(=O)[C@H](CO)NC(=O)[C@@H](NC(=O)[C@H](Cc1ccc(OP(=O)(O)O)cc1)NC(=O)[C@H](CC(=O)O)NC(=O)[C@@H]1CCCN1C(=O)[C@@H](NC(=O)[C@@H]1CCCN1)C(C)C)[C@@H](C)O)C(=O)N[C@H](C(N)=O)C(C)C` [PVPDpYTSAHIV] (H-PVPD[pY]TSAHIV-NH2) was run?
Answer: The Ki was 3.4 ± 0.66 µM.

Question: With `CC[C@H](C)[C@H](NC(=O)[C@H](C)NC(=O)[C@@H](NC(=O)[C@H](CO)NC(=O)[C@@H](NC(=O)[C@H](Cc1ccc(OP(=O)(O)O)cc1)NC(=O)[C@H](CC(=O)O)NC(=O)[C@@H]1CCCN1C(=O)[C@@H](NC(=O)[C@@H]1CCCN1)C(C)C)[C@@H](C)O)[C@@H](C)CC)C(=O)N[C@H](C(N)=O)C(C)C` [PVPDpYTSIAIV] (H-PVPD[pY]TSIAIV-NH2) as the compound, how does the Kd [1, 4] read?
Answer: The Kd was 6.7 ± 0.78 µM.

Question: For `CC[C@H](C)[C@H](NC(=O)[C@H](Cc1c[nH]cn1)NC(=O)[C@@H](NC(=O)[C@H](CO)NC(=O)[C@@H](NC(=O)[C@H](Cc1ccc(OP(=O)(O)O)cc1)NC(=O)[C@H](CC(=O)O)NC(=O)[C@@H]1CCCN1C(=O)[C@@H](NC(=O)[C@@H]1CCCN1)C(C)C)[C@@H](C)O)[C@@H](C)CC)C(=O)N[C@@H](C)C(N)=O` [PVPDpYTSIHIA], which Kd [1, 4] is on record?
Answer: The Kd was 1.9 ± 0.09 µM.

Question: How did the Kd [1, 4] turn out when `CC[C@H](C)[C@H](NC(=O)[C@H](CO)NC(=O)[C@@H](NC(=O)[C@H](Cc1ccc(OP(=O)(O)O)cc1)NC(=O)[C@H](CC(=O)O)NC(=O)[C@@H]1CCCN1C(=O)[C@H](CCCNC(=N)N)NC(=O)[C@@H]1CCCN1)[C@@H](C)O)C(=O)N[C@@H](Cc1c[nH]cn1)C(=O)N[C@H](C(=O)N[C@H](C(N)=O)C(C)C)[C@@H](C)CC` [V(−3)R] (H-PRPD[pY]TSIHIV-NH2) was run?
Answer: The Kd was 9 ± 1.05 µM.

Question: With `CC[C@H](C)[C@H](NC(=O)[C@H](CO)NC(=O)[C@@H](NC(=O)[C@H](Cc1ccc(OP(=O)(O)O)cc1)NC(=O)[C@H](CC(=O)O)NC(=O)[C@@H]1CCCN1C(=O)[C@H](Cc1ccc(O)cc1)NC(=O)[C@@H]1CCCN1)[C@@H](C)O)C(=O)N[C@@H](Cc1c[nH]cn1)C(=O)N[C@H](C(=O)N[C@H](C(N)=O)C(C)C)[C@@H](C)CC` [V(−3)Y] (H-PYPD[pY]TSIHIV-NH2) as the compound, how does the Ki [2] read?
Answer: The Ki was 3.3 ± 0.24 µM.

Question: And the Kd [1, 4]?
Answer: The Kd was 3.3 ± 0.13 µM.
